Columns and labels:
glucocorticoid receptor = target: T1, glucocorticoid receptor (Rattus norvegicus, UniProt P06536); experiment: relative molar bonding affinity to glucocorticoid receptor (competitive bonding); assay type: binding; conditions: dexamethasone = 100%; thymus cytosol of adrenalectomized rat; 3H-dexamethasone, 20 nM; 18 h, 0-4° C.
T1 construct: thymus cytosol of the adrenalectomized rat; from tissue; host or cells: thymus (cytosol) of adrenalectomized rat
T1 sequence (P06536 1-795): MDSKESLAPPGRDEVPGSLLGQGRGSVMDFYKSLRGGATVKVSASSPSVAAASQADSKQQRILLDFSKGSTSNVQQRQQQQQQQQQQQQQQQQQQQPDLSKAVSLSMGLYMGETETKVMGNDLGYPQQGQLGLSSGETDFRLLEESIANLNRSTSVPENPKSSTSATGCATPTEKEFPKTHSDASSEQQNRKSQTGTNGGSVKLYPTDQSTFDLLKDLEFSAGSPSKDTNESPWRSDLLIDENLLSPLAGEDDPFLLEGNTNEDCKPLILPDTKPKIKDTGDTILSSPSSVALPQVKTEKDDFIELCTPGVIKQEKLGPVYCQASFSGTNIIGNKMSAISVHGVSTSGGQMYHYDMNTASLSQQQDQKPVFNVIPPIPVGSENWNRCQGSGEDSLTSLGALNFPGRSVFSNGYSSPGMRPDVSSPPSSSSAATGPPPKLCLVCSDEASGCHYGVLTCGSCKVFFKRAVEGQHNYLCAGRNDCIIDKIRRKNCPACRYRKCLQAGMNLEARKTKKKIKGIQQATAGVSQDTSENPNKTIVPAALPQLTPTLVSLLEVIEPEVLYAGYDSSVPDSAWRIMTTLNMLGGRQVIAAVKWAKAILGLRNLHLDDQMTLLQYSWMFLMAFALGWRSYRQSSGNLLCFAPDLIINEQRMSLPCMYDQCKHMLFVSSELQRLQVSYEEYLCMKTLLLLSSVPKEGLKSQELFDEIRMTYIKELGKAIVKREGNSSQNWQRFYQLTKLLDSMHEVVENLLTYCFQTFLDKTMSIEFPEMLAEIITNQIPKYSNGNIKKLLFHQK
Experimental: (§1) Measurement of bonding affinity for receptors
(§2) Receptor bonding affinity was determined by competitive bonding of a specifically binding ^3 H labelled hormone (tracer) and the compound to be tested to receptors in the cytosol from animal target organs. It was tried to obtain receptor saturation and a balanced reaction. The following incubation conditions were selected:
Glucocorticoid receptor: thymus cytosol of the adrenalectomized rat, thymi kept at -30° C., buffer: TED. Tracer: ^3 H-dexamethasone, 20 nM; reference substance: dexamethasone.
(§3) After an incubation period of 18 hours at 0°-4° C., bonded and free steroid was separated by mixing in active carbon/dextrane (1%/0.1%), centrifuging off and measuring the bonded ^3 H activity in the supernatant.
(§4) The IC50 for the compound to be tested and for the reference substance were determined from measurements in series of concentrations.

progesterone receptor = target: T2, progesterone receptor (Oryctolagus cuniculus, UniProt P06186); experiment: relative molar bonding affinity to progesterone receptor (competitive bonding); assay type: binding; conditions: progesterone = 100%; uterine cytosol of estradiol-primed rabbit; 3H-ORG 2058, 5 nM; 18 h, 0-4° C.
T2 construct: uterine cytosol of the estradiol-primed rabbit; from tissue; host or cells: uterus (cytosol) of estradiol-primed rabbit
T2 sequence (P06186 1-930): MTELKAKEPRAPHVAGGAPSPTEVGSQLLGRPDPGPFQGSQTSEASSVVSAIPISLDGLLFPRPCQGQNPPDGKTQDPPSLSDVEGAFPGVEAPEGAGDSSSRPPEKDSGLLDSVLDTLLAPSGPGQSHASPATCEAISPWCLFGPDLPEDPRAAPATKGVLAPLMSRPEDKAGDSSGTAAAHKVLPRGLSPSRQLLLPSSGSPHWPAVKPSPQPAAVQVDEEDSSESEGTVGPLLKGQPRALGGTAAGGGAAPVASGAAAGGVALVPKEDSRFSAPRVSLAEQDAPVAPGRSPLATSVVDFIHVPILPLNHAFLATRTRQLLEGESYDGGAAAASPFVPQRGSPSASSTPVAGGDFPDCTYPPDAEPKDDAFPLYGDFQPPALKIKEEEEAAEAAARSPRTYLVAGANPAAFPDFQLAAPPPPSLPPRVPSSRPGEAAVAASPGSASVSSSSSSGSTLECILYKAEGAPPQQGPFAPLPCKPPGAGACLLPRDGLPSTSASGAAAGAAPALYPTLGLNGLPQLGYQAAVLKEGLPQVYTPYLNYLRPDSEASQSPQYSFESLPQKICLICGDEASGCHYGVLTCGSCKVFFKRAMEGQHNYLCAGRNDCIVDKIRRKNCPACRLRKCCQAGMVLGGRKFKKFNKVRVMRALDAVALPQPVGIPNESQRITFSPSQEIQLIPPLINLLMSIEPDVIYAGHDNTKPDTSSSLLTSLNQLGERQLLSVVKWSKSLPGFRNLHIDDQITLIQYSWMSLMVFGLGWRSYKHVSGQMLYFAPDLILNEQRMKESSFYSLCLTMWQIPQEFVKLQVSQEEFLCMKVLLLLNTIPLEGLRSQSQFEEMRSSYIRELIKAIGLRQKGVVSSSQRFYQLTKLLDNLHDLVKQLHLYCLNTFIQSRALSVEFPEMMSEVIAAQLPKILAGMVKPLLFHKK
Experimental: as §1, §2
Progesterone receptor: uterine cytosol of the estradiol-primed rabbit, kept at -30° C. in TED buffer (20 mM Tris/HCl, pH 7.4; 1 mM ethylene diamine tetraacetate, 2 mM dithio threitol) with 250 mM of saccharose.
as §3, §4

oestrogen receptor = target: T3, oestrogen receptor (Oryctolagus cuniculus, UniProt G1SML6); experiment: relative molar bonding affinity to oestrogen receptor (competitive bonding); assay type: binding; conditions: estradiol = 100%; uterine cytosol of immature rabbit; 3H-ethinyl estradiol, 3 nM; 18 h, 0-4° C.
T3 construct: uterine cytosol of the immature rabbit; from tissue; host or cells: uterus (cytosol) of immature rabbit
T3 sequence (G1SML6 1-598): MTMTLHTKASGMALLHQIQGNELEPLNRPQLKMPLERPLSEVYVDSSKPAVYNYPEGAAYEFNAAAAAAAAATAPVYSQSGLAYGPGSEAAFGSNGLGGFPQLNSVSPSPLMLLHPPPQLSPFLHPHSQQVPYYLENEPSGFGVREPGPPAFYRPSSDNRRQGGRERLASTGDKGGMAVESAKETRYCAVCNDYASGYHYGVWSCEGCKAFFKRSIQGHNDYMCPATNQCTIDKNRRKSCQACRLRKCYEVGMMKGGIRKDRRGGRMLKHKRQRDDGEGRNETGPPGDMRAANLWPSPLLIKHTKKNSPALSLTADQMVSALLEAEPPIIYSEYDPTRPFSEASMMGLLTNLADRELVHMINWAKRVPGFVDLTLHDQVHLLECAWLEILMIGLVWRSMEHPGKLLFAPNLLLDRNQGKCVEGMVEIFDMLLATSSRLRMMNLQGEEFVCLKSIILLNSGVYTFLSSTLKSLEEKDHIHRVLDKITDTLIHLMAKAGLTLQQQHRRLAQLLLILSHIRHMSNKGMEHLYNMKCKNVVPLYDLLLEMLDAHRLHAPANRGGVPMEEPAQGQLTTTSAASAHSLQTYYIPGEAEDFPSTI
Experimental: as §1, §2
Oestrogen receptor: uterine cytosol of the immature rabbit, kept at -30° C. in TED buffer with 250 mM of saccharose. Tracer: ^3 H-ethinyl estradiol, 3 nM; reference substance: 17β-estradiol.
as §3
The IC50 for the compound to be tested and for the reference substance were determined from measurements in series of concentrations. The quotient of both values (×100%) is the relative molar bonding affinity.

[1] = test system: uterine weight in cyclic guinea pigs; experiment: Influence on uterine weight in cyclic guinea pigs; assay type: in vivo, guinea pig
Text: FIG. 1. is a chart showing a comparison of the influence on uterine weight in cyclic guineau pigs when treated with the antigestagen agents RU 486, a control (the vehicle), and a compound of the present invention, J 867 (as prepared in accordance with Example 1).
FIG. 1 compares the influence of antigestagen treatment of cyclic guinea pigs on uterine weights for J 867 and RU 486.
Treatment of female guinea pigs with antigestagen
Treatment of adult female guinea pigs from day 10 to day 18 of the cycle (autopsy). Administration of the specified doses using subcutaneous osmotic pumps (Type 2 ML1 ALZET). Vehicle: […] propylene glycol/24 hrs.

[2] = test system: early gravidity in the rat; experiment: Early abortive effect / inhibition of early gravidity in the rat; assay type: in vivo; conditions: 5th to 7th day of pregnancy; for complete gravidity inhibition % / complete gravidity inhibition N*/N (females not pregnant/inseminated females): empty uteri
Experimental: Inhibition of early gravidity in the rat
Female rats are mated in the pro-oestrus. If semen is found in the vaginal smear on the next day, this day is counted as day 1 (=d1) of the gravidity. Treatment with the test substance or vehicle is applied on d5-d7, autopsy is carried out on d9. The substances are injected subcutaneously in 0.2 ml of vehicle (benzyl benzoate/castor oil 1+4).

Structure (SMILES)	relative molar bonding affinity (RBA) to glucocorticoid receptor (glucocorticoid receptor) [%]	relative molar bonding affinity (RBA) to progesterone receptor (progesterone receptor) [%]	relative molar bonding affinity (RBA) to oestrogen rec. (oestrogen receptor) [%]	further results
COC[C@]1(OC)CC[C@H]2[C@@H]3CCC4=CC(=O)CCC4=C3[C@@H](c3ccc(C=NOC)cc3)C[C@@]21C [Example 2, 11β-[4-(methoximinomethyl)phenyl]-17β-methoxy-17α-methoxymethyl-estra-4,9-diene-3-on]	82	136	< 0.1	–
COC[C@]1(OC)CC[C@H]2[C@@H]3CCC4=CC(=O)CCC4=C3[C@@H](c3ccc(C=NOC(C)=O)cc3)C[C@@]21C [Example 3, 11β-[4-(acetyloximinomethyl)phenyl]-17β-methoxy-17α-methoxymethyl-estra-4,9-diene-3-on]	73	236	< 0.1	–
CCOC(=O)ON=Cc1ccc([C@H]2C[C@@]3(C)[C@@H](CC[C@]3(COC)OC)[C@@H]3CCC4=CC(=O)CCC4=C32)cc1 [Example 4]	66	294	< 0.1	–
C[C@]12C[C@H](c3ccc(C=NO)cc3)C3=C4CCC(=O)C=C4CC[C@H]3[C@@H]1CC[C@@]2(O)CCl [Example 5, 17α-chloromethyl-11β-[4-(hydroximinomethyl)phenyl]-17β-hydroxy-estra-4,9-diene-3-on]	32	90	< 0.1	–
CC#C[C@]1(O)CC[C@H]2[C@@H]3CCC4=CC(=O)CCC4=C3[C@@H](c3ccc(N(C)C)cc3)C[C@@]21C [RU 486, Mifepristone, reference compound]	685	–	–	uterine weights of cyclic guinea pigs, high dose ([1]; 6 mg/24 hrs, s.c. osmotic pump, day 10 to 18 of cycle): reduce the uterine weights of the treated animals; uterine weights in the anovulatorial cycle in guinea pigs ([1]; doses at which RU 486 increases uterine weights, compared with control animals): increases uterine weights; uterine weights of cyclic guinea pigs, low dose ([1]; low dosis, s.c. osmotic pump, day 10 to 18 of cycle): slight gain in uterine weights; complete gravidity inhibition % ([2]; 0.3 mg/animal/day s.c.): 0%; complete gravidity inhibition N*/N (females not pregnant/inseminated females) ([2]; 0.3 mg/animal/day s.c.): 0/5; complete gravidity inhibition % ([2]; 1.0 mg/animal/day s.c.): 40%; complete gravidity inhibition N*/N (females not pregnant/inseminated females) ([2]; 1.0 mg/animal/day s.c.): 2/5; complete gravidity inhibition % ([2]; 3.0 mg/animal/day s.c.): 100%; complete gravidity inhibition N*/N (females not pregnant/inseminated females) ([2]; 3.0 mg/animal/day s.c.): 5/5; ED 50 ([2]; s.c., graphic determination): 1.3 mg/animal/day
CN(C)c1ccc([C@H]2C[C@]3(C)[C@@H](CC[C@]3(O)CCCO)[C@@H]3CCC4=CC(=O)CCC4=C32)cc1 [ZK 98299, Onapristone, reference compound]	39	22	–	–
